IC50 data for one molecule are collected here from ChEMBL document CHEMBL3638605, “N-hydroxy-benzamids for the treatment of cancer” (2014).

The assay deals with T1, Histone deacetylase 8 (Homo sapiens, UniProt Q9BY41).
T1 sequence (Q9BY41 whole entry): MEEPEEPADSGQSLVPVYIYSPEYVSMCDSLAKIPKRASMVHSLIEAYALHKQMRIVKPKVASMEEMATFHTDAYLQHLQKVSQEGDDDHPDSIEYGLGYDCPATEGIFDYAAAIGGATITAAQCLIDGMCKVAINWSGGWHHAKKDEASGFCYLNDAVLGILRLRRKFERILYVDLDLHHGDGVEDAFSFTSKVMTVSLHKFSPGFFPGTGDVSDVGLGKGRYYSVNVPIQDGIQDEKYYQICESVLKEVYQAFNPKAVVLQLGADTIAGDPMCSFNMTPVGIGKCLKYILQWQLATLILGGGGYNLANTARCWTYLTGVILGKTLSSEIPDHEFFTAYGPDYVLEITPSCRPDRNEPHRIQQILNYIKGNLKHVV
In words: Fluorometric Assay: Compounds were tested for their ability to inhibit histone deacetylase 8 using an in vitro deacetylation assay. In a detailed procedure, 8 μl of HDAC8 enzyme solution (0.125 μg/μl) was transferred to assay plates (CORNING 3676). 1 μl of half-log diluted compounds were added into wells and incubated for 15 min at rt. After that, 8 μl of substrate solution was transferred to the wells and incubated for 30 min at rt. After deacetylation of the substrate by incubation with HDAC8 enzyme, subsequent exposure to a developing reagent produced a fluorophore that was directly proportional to the level of deacetylation. So 4 μl of developer regent (Cayman 10006394) was added into the wells in the assay plates and incubated for 15 min. The fluorescence signal was measured by a FlexStation3 plate reader (excitation wave length 340-360 nm; emission wave length 440-465 nm).

By IC50 is commonly meant the midpoint of a concentration-inhibition curve. Low values mean greater potency in that assay, high ones weaker potency in that assay. On to `O=C(NO)c1ccc2c(c1)CC(Nc1nccc(-c3cccnc3)n1)CN2` (stereo unspecified), for which the IC50 was 470 nM.
